Measured values reported in PMC9489682, “Synthesis and comparative evaluation of ^177Lu-labeled PEG and non-PEG variant peptides as HER2-targeting probes” (Scientific Reports, 2022).
Like-named read-outs stand apart in the source and are kept apart here. Residues, ends and D or L forms follow the SMILES beside them. *: point of attachment. DOTA = O=C(O)CN1CCN(CC(=O)O)CCN(CC(=O)*)CCN(CC(=O)O)CC1; PEG5 = NCCOCCOCCOCCOCCOCCC(=O)O

Legend:
Human serum stability = type: in vitro ADME; conditions: human serum 500 μL, pH 7.4, 37 °C, 6 h, 25 µL (3.7 MBq) radiopeptide, acetonitrile precipitation, RP-HPLC radiochromatogram
Protocol: For serum stability studies blood was allowed to clot (1 h) followed by centrifugation (2300×g, 10 min). Measurements were performed by incubation of radiopeptides (25 µL, 3.7 MBq) with human serum (500 μL, pH 7.4) at 37 °C. After 6 h incubation acetonitrile (500 μL) was added to the sample for protein precipitation. Subsequently the sample was centrifuged, supernatant was collected and radiochemical purity was analyzed by RP-HPLC.

HER2 = target: T1, HER2 (Homo sapiens, UniProt P04626); assay: Saturation radioligand binding assay in SKBR3 cells; conditions: HER2 over expressing SKBR3 cells, 1 × 10^6 cells/well, 4–200 nM radiopeptide, 37 °C, 60 min, non-specific binding with unlabeled DOTA-A9, nonlinear regression, read-out: Binding affinity Kd
T1 construct: endogenous in cells; host or cells: SKBR3 human breast carcinoma cells
Protocol: The binding affinity of [^177Lu]DOTA-A9 and [^177Lu]DOTA-PEG4-A9 was determined by the saturation radioligand binding assay in HER2 over expressing SKBR3 cells. 1 × 10^6 cells/well were seeded in cell culture plates and incubated at 37 °C. Cells were treated with series of increasing concentration of the radiolabeled peptide (4–200 nM) and incubated at 37 °C for 60 min. For obtaining non-specific binding, cells were co-incubated with radiolabeled formulations along with unlabeled DOTA-A9 peptide. On completion of incubation, cells were washed with the ice-cold phosphate buffer saline (PBS). Cells with bound radioactivity were harvested with 1 N NaOH (1 mL) solution (at 37 °C for 3 min) and counted in a gamma counter. Kd value was calculated by the nonlinear regression algorithm (GraphPad Prism version 7.0). The Bmax value (nM) was converted to the number of HER2 receptors per cell.

[1] = Biodistribution in SKBR3 tumor bearing SCID mice; type: in vivo; conditions: female, mouse, iv, 0.5 ug, total radioactivity, mean ± SD; for tissue to tissue ratio at 3 h: 3 h p.i.; for tissue to tissue ratio at 3 h / tissue to tissue ratio at 24 h / tissue to tissue ratio at 48 h: i.v. tail vein, 0.5 μg, 3.7 MBq; for tissue to tissue ratio at 24 h: 24 h p.i.; for tissue to tissue ratio at 48 h: 48 h p.i.
Protocol: Biodistribution studies of peptide tracers, [^177Lu]DOTA-A9 and [^177Lu]DOTA-PEG4-A9 were carried out in female SCID mice bearing human breast carcinoma, SKBR3 tumor xenografts. Tumor bearing mice (n = 3) were intravenously injected with peptide tracers (0.5 μg, 150 μL, 3.7 MBq) into the tail vein. Animals were sacrificed and dissected at 3 h, 24 h and 48 h post injection (p.i.). The radioactivity associated with each tissue was counted in a NaI (Tl) flat geometry detector and expressed as percentage injected dose per gram of tissue [% ID/g, mean ± standard deviation, n = 3/radiotracer].
Statistical analysis using the […] two-tailed Student’s t-test was performed to compare uptake values in tumor and major organs between [^177Lu]DOTA-A9 and [^177Lu]DOTA-PEG4-A9 animal groups; values of p < 0.05 were considered statistically significant.

MDA-MB-435 tumors = conditions: in vivo; cited from earlier work
Protocol: Besides A9 peptide other HER2-targeting peptides have been explored and investigated. […] However, the tumor uptake reduced to 0.10 ± 0.02% ID/g at 24 h p.i. which is much lower than the values of presently studied radiopeptides. […] Tumor-to muscle ra ...

U-87 MG tumors = conditions: in vivo; cited from earlier work
Protocol: Several Tc-99m-labeled peptides targeting HER2 receptors have also been studied. The high uptake of [^99mTc]HYNIC-(Ser)3-LTVPWY in U-87 MG tumors (2.08 ± 0.07% ID/g) at 1 h p.i. dropped to 0.04 ± 0.03% ID/g at 4 h p.i. […] Tumor-to-blood, tumor-to-muscle and tumor-to-kidney ratios reported were much lower for [^99mTc]CGGG-LTVSPWY and [^99mTc]CSSS-LTVSPWY compared to the current radiopeptides.

[2] = Water solubility (remarks); type: physicochemical; conditions: authors' remark on the non-pegylated peptide
[3] = tumor / blood, n = 3, read-out: Tumor-to-blood ratio
[4] = tumor / muscle, n = 3, read-out: Tumor-to-muscle ratio

T1 sequence (P04626 23-1255): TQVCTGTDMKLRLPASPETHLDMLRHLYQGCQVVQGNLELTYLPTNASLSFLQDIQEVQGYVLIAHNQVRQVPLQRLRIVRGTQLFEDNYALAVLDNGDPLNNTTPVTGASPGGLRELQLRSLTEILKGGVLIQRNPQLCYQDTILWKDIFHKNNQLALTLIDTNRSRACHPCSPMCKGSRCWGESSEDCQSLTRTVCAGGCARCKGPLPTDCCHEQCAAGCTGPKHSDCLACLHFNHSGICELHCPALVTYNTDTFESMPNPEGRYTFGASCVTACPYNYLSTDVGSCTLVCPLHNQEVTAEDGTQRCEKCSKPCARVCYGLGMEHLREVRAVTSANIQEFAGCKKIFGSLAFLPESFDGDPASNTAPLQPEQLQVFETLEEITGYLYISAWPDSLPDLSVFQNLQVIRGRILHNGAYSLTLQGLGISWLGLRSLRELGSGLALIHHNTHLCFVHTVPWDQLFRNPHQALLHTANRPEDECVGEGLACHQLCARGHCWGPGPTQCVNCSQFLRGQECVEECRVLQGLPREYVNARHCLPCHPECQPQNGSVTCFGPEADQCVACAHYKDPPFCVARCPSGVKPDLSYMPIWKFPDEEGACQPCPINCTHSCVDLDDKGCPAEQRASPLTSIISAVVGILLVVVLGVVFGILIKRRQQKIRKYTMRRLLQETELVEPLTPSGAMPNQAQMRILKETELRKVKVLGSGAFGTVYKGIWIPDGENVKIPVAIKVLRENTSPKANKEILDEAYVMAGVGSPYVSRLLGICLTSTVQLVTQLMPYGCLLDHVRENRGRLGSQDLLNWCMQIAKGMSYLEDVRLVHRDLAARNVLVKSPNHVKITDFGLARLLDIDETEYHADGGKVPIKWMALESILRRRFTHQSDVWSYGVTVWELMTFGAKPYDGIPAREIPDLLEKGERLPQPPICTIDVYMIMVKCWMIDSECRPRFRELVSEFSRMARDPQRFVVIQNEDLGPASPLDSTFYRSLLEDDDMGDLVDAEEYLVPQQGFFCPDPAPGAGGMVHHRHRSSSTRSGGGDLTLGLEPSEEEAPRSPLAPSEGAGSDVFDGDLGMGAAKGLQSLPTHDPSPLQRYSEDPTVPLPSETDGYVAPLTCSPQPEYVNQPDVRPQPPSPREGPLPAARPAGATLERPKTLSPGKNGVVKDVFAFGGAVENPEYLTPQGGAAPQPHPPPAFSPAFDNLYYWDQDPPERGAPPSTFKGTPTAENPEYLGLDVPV

Row | Molecule | Degradation on incubation with human serum (radio-HPLC) (Human serum stability) | Kd (HER2) | tissue to tissue ratio at 3 h [1, 3] | tissue to tissue ratio at 24 h [1, 3] | tissue to tissue ratio at 3 h [1, 4] | tissue to tissue ratio at 24 h [1, 4] | tissue to tissue ratio at 48 h [1, 4] | intact radiopeptide after 6 h in human serum | also measured
1 | CC(C)[C@H](NC(=O)[C@H](C)NC(=O)[C@@H](NC(=O)[C@H](CC(N)=O)NC(=O)[C@@H](NC(=O)[C@H](CC(=O)O)NC(=O)[C@H](CCC(N)=O)NC(=O)CN1CCN(CC(=O)O)CCN(CC(=O)O)CCN(CC(=O)O)CC1)C(C)C)[C@@H](C)O)C(=O)N[C@@H](C)C(=O)N[C@@H](Cc1c[nH]c2ccccc12)C(N)=O [[^177Lu]DOTA-A9, metal not drawn] ({DOTA}-QDVNTAVAW-NH2) | no degradation | 48.4 ± 1.37 nM | 3.4 ± 0.49 | 7.42 ± 1.11 | 8.42 ± 0.04 | 8.09 ± 2.21 | 10 ± 1.57 |  | 
2 | CC(C)[C@H](NC(=O)[C@H](C)NC(=O)[C@@H](NC(=O)[C@H](CC(N)=O)NC(=O)[C@@H](NC(=O)[C@H](CC(=O)O)NC(=O)[C@H](CCC(N)=O)NC(=O)CCOCCOCCOCCOCCOCCNC(=O)CN1CCN(CC(=O)O)CCN(CC(=O)O)CCN(CC(=O)O)CC1)C(C)C)[C@@H](C)O)C(=O)N[C@@H](C)C(=O)N[C@@H](Cc1c[nH]c2ccccc12)C(N)=O [[^177Lu]DOTA-PEG4-A9, metal not drawn] ({DOTA-PEG5}-QDVNTAVAW-NH2) | no change in radiochromatogram | 55.7 ± 12.3 nM | 3.85 ± 0.02 | 8.87 ± 1.51 | 15.7 ± 2.06 | 13.3 ± 0.03 | 30 ± 2.83 | > 95% | tissue uptake at 3 h ([1]; SKBR3 tumor, maximum observed at 3 h p.i., n = 3): 2.04 ± 0.22 %ID/g; tissue to tissue ratio at 48 h [1, 3]: 15 ± 1.42
3 | DOTA(GSG)-KCCYSL [[^111In]DOTA(GSG)-KCCYSL, In-111 labeled HER2-targeting KCCYSL peptide] |  |  |  |  |  |  |  |  | Maximum tumor uptake (MDA-MB-435 tumors): 2.12 ± 0.32 % ID/g; Tumor-to-blood ratio (MDA-MB-435 tumors): 10:1; Tumor-to-muscle ratio (MDA-MB-435 tumors): 0.5:1
4 | CC(C)[C@H](NC(=O)[C@H](C)NC(=O)[C@@H](NC(=O)[C@H](CC(N)=O)NC(=O)[C@@H](NC(=O)[C@H](CC(=O)O)NC(=O)[C@H](CCC(N)=O)NC(=O)CN1CCN(CC(=O)O)CCN(CC(=O)O)CCN(CC(=O)O)CC1)C(C)C)[C@@H](C)O)C(=O)N[C@@H](C)C(=O)N[C@@H](Cc1c[nH]c2ccccc12)C(N)=O ({DOTA}-QDVNTAVAW-NH2) |  |  |  |  |  |  |  | > 95% | 
5 | HYNIC-(Ser)3-LTVPWY [[^99mTc]HYNIC-(Ser)3-LTVPWY, Tc-99m-labeled peptide targeting HER2 receptors] |  |  |  |  |  |  |  |  | Tumor-to-blood ratio (U-87 MG tumors): 3.39; Tumor-to-kidney ratio (U-87 MG tumors): 0.24; Tumor-to-muscle ratio (U-87 MG tumors): 3.98
6 | CC(C)[C@H](NC(=O)[C@H](C)NC(=O)[C@@H](NC(=O)[C@H](CC(N)=O)NC(=O)[C@@H](NC(=O)[C@H](CC(=O)O)NC(=O)[C@H](CCC(N)=O)NC(=O)CN1CCN(CC(=O)O)CCN(CC(=O)O)CCN(CC(=O)O)CC1)C(C)C)[C@@H](C)O)C(=O)N[C@@H](C)C(=O)N[C@@H](Cc1c[nH]c2ccccc12)C(N)=O [DOTA-A9] ({DOTA}-QDVNTAVAW-NH2) |  |  |  |  |  |  |  |  | Solubility [2]: no solubility issues
